Laboratory results taken from patent publication US20070213283A1, “Macrolides substituted at the 4"-position” (priority 2003, published 2007).

Assays:
Experiment in all cases: MIC, standard broth dilution method in microtitre
Assay type in all cases: cell-based
[1] = system: E. faecalis ATCC 29212; conditions: Enterococcus faecalis, ATCC29212
Protocol: (§1) Using a standard broth dilution method in microtitre, compounds were tested for antibacterial activity. The compounds in the above examples gave minimum inhibitory concentrations (MICs) less than 1 microgram per millilitre against erythromycin-sensitive and erythromycin-resistant strains of Streptococcus pneumoniae and Streptococcus pyogenes.
(§2) In addition, the MIC (μg/mL) of test compounds against various organisms was determined including:
(§3) S. aureus Smith ATCC 13709, S. pneumoniae SP030, S. pyogenes 3565, E. faecalis ATCC 29212, H. influenzae ATCC 49247, M. catarrhalis ATCC 23246.

[2] = system: H. influenzae ATCC 49247; conditions: Haemophilus influenzae, ATCC49247; H. influenzae ATCC 49247; broth dilution in microtitre; read-out: MIC
Protocol: as §1, §2, §3

[3] = system: M. catarrhalis ATCC 23246; conditions: Moraxella catarrhalis, ATCC23246
Protocol: as §1, §2, §3

[4] = system: S. aureus Smith ATCC 13709; conditions: Staphylococcus aureus, ATCC13709
Protocol: as §1, §2, §3

[5] = system: S. pneumoniae SP030; conditions: Streptococcus pneumoniae
Protocol: as §1, §2, §3

[6] = system: S. pyogenes 3565; conditions: Streptococcus pyogenes
Protocol: as §1, §2, §3

[7] = system: erythromycin resistant strains of Streptococcus pneumoniae
Protocol: as §1

[8] = system: erythromycin resistant strains of Streptococcus pyogenes
Protocol: as §1

- MIC [1]: ≤ 1 mg/L
- MIC [2]: ≤ 2 mg/L
- MIC [3]: ≤ 2 mg/L
- MIC [4]: ≤ 1 mg/L
- MIC [5]: ≤ 1 mg/L
- MIC [6]: ≤ 1 mg/L
- MIC [7]: ≤ 0.25 mg/L
- MIC [8]: ≤ 0.25 mg/L
Compound: CC[C@@H]1OC(=O)[C@H](C)[C@H](O[C@@H]2C[C@](C)(OC)[C@H](OC(=O)CCNCCSc3ccc4c(c3)c(=O)c(C(=O)O)cn4CC)[C@H](C)O2)[C@@H](C)[C@H](O[C@@H]2O[C@H](C)C[C@H](N(C)C)[C@@H]2O)[C@](C)(O)C[C@H](C)CN(C)[C@@H](C)[C@@H]2OC(=O)O[C@@]12C [Example 11, 4″-O-{3-[2-(3-Carboxy-1-ethyl-4-oxo-1,4-dihydro-6-quinolinysulfanyl)ethylamino]propionyl}-azithromycin11,12-carbonate]
